“Also recorded” adds a separate entry of the source.
Experiments:
PSC27 = test: Population doubling (PD) test of PSC27; assay type: cell-based, human
Procedure: The cells were damaged by BLEO at passage 10 (p10), and then SAE was added to the medium at day 8. The effect SAE on cell proliferation potential is determined by comparative analysis of the population doubling (PD) of CTRL group, BLEO group, SAE group and BLEO/SAE group. ^, P>0.05; ***P<0.001.

SASP factors [1] = test: RNA-seq and GSEA expression profile of BLEO-induced senescent PSC27 cells; assay type: cell-based, human
Procedure: To cause cell damage, 50 μg/mL bleomycin (bleomycin, BLEO) was added to the culture medium when PSC27 cells grew to 80% (abbreviated as PSC27-CTRL). After 12 hours of drug treatment, the cells were simply washed 3 times with PBS, left in the culture medium for 7-10 days, and then the subsequent experiments were performed.
Whole-transcriptome sequencing was performed on the primary human prostate stromal cell line PSC27 under different treatment conditions. Total RNA samples were obtained from stromal cells. Their integrity was verified by Bioanalyzer 2100 (Agilent), RNA was sequenced by Illumina HiSeq X10, and gene expression levels were quantified by software package rsem (https://deweylab. github.io/rsem/). Briefly, rRNA was depleted from RNA samples with the RiboMinus Eukaryote Kit (Qiagen, Valencia, CA, USA); and according to the manufacturer's instructions, TruSeq Stranded Total RNA Preparation Kits (Illumina, San Diego, CA, USA) was used to construct a strand-specific RNA-seq library before deep sequencing.
Paired-end transcriptomic reads were mapped to a reference genome (GRCh38/hg38), and reference-annotation was performed from Gencode v27 using the Bowtie tool. Duplicate reads were identified using the picard Tools (1.98) script to mark duplicates (https://github. com/broadinstitute/picard), and only non-duplicate reads were retained. Reference splice junctions were provided by reference transcriptome (Ensembl Build 73). FPKM values were calculated with Cufflinks, and Cufflinks maximum likelihood estimation function was used to call differential gene expression. […]
Based on the data obtained from the preliminary analysis of RNA-seq, after analyzing and comparing each differentially expressed significant gene, the genes were sorted using the “wald statistics” obtained from DESeq2. […] DESeq2 independent filtering was based on the average of normalized read counts to select genes with very low expression levels. […]

aged C57BL/6 mice = test: Lifespan study in aged C57BL/6 mice; assay type: in vivo, mouse; details: administered from 24-27 months of age, every two weeks
Procedure: Starting at 24 to 27 months of age, C57BL/6 mice received intraperitoneal administration of vehicle or SAE every two weeks (n=80 for vehicle group; n=91 for SAE group). The median survival of animals in each group was calculated and indicated. ****, P<0.0001.
Starting at 24 to 27 months of age, C57BL/6 mice received intraperitoneal administration of vehicle or SAE every two weeks (n=80 for vehicle group; n=91 for SAE group). The median lifetime survival of animals in each group was calculated and indicated. ****, P<0.0001.
For the cell transplantation study, the inventors obtained […] male C57BL/6 mice by serial rearing in the SPF animal platform, with 4 to 5 animals per cage. The inventors first sorted the mice by body weight from low to high, and then selected mice with similar body weights. Next, the mice were assigned to senescence (SEN) or control (CTRL) transplant treatment at each interval using a random number generator, while the middle mice were assigned to the other treatment, so that the body weights of the senescence and control transplant mice were matched. One month after cell transplantation, when the mice were 18 months old, physical function tests were performed. After that, no further testing was done on the mice other than checking their cages. The earliest deaths occurred approximately 2 months after the last physical function test. […]

[2] = tested on: senescent cells in tumor tissue; test: SA-β-Gal staining of tumor tissues of PC3/PSC27 tumor-bearing mice; assay type: in vivo, mouse; details: SAE with MIT
Procedure: Representative pictures after SA-β-Gal staining. Scale bar, 100 μm.
(§1) In a preclinical treatment trial, subcutaneously transplanted mice were fed with a standard experimental diet, after 2 weeks chemotherapy drugs mitoxantrone (MIT, dose: 0.2 mg/kg) and/or SAE (500 μl, dose: 10 mg/kg) via intraperitoneal administration. The time points were: the former was administrated on the first day of the 3rd, 5th and 7th weeks, and the latter was administrated on the first day of the 5th and 7th weeks. A total of 3 cycles of MIT administration were carried out throughout the course of treatment, and each cycle lasted for 2 weeks. After the course of treatment, mouse tumors were harvested for volume measurement and histological analysis. Each mouse cumulatively received 0.6 mg/kg body weight of MIT and 30 mg/kg body weight of SAE. In order to cause systemic expression of SASP factors induced by chemotherapy, MIT was administered to mice through intravenous infusion according to the above steps and sequence, but the dose was reduced to 0.1 mg/kg body weight/each time (the cumulative dose of MIT received in the whole course of treatment was 0.3 mg/kg body weight) to reduce drug-related toxicity. The chemotherapy experiment ended at the end of the 8th week, and the mice were dissected immediately after sacrifice, and the xenograft tumors were collected and used for pathological system analysis.

SASP factors [3] = test: LCM and qRT-PCR of SASP factors in mouse lesions; assay type: in vivo; details: MIT/SAE vs MIT
Procedure: The stromal cells and cancer cells were specifically separated by LCM technology, total RNA was prepared and used for SASP expression detection. ^, P>0.05; *, P<0.05; **, P<0.01.
as §1, with “The chemotherapy experiment ended at the end of the 8th week, and the mice were dissected immediately after sacrifice, and the xenograft tumors were collected and used for pathological system analysis.” left out

SMILES: O=C(/C=C/c1ccc(O)c(O)c1/C(=C\c1ccc(O)c(O)c1)C(=O)O[C@H](Cc1ccc(O)c(O)c1)C(=O)O)O[C@H](Cc1ccc(O)c(O)c1)C(=O)O [SAE, salvianolic acid E]
- PD in proliferating cells (PSC27; SAE alone): does not affect PD
- population doubling (PD) ability of stromal cells after genotoxic treatment combined with SAE (PSC27; combination with genotoxic drug (BLEO) vs genotoxic drug alone): significant increase; also recorded: significantly increased
- expression of SASP factors in senescent cells after SAE treatment (SASP factors [1]; BLEO-induced senescent PSC27): universally reduced; also recorded: generally decreased
- molecular signatures characterizing SASP expression or NF-κB activation (GSEA) (SASP factors [1]; BLEO-induced senescent PSC27 after SAE): significant repression
- expression profile of senescent cells (SASP factors [1]; RNA-seq, BLEO-induced senescent PSC27): significantly altered
- risk of death HR (SAE group/vehicle group) (aged C57BL/6 mice): 0.3249
- senescent cells in the lesions of animals treated with chemotherapeutic drugs after SAE administration [2]: essentially depleted most senescent cells
- change of SASP factor expression when SAE was administered (SASP factors [3]): largely reversed

— US20250295619A1, “Use of Salvianolic Acid E in the Preparation of Drugs Targeting Senescent Cells, Inhibiting Tumors or Extending Lifespan” (Shanghai Institute of Nutrition and Health, Chinese Academy …, priority 2024, published 2025)
